Seven compounds from US12605384B2, “Uses” (INTRA-CELLULAR THERAPIES, INC., priority 2018, dated 2026) can be followed below.

Structures are written as SMILES. Counter-ions that a name gives are not always drawn.

Data set [1] concerns normal and failing canine hearts. As to the kind of experiment: Conscious pressure-volume hemodynamic analysis in dogs. The class given is in vivo, dog. The protocol:
(§1) Dogs are studied in the conscious state before and after inducing dilated cardiomyopathy by tachypacing for two weeks at 200 bpm.
(§2) The study employs two doses, 0.01 and 0.1 mg/kg, the latter administered 30 minutes after the first.
Load insensitive indexes of contractility (dP/dtmax/IP and PRSW) increased.

The test system of the next data set is myocyte cAMP. Kind of data set: Whole cell cAMP in rabbit myocytes. The data set is classed as cell-based. As to conditions: for cAMP: added to Fsk; for whole cell cAMP: alone or combined with Iso. From the text:
This is consistent with prior studies showing locally generated cAMP from β-AR and its modulation by PDE3 occur in local subcellular domains that are not easily detected in whole cell lysates32.

The nature of data set [2]: Plasma pharmacokinetics in heart failure patients. The class given is in vivo, human. The conditions noted are these: 10, 30, 90 mg. The protocol:
(§3) A further group was administered placebo.
(§4) Hemodynamic monitoring began 30-60 minutes prior to the pre-dose echocardiogram through to 5-6 hours post-dose.

Data set [3] deals with normal adult rabbit myocytes. Kind of data set: Contraction and calcium transients in isolated rabbit cardiomyocytes. The data set is classed as cell-based. Also noted: effect on contraction and calcium transients: dose or concentration left out as unconfirmed. The protocol:
To test whether PDE1 inhibition directly impacts cardiomyocyte contraction and calcium transients, studies are carried out on normal adult rabbit myocytes. […] As PDE1 requires sufficient cAMP and Ca^2+ to be impactful, a dose response was performed to the adenylate cyclase activator, forskolin (FSK) to determine the lowest dose producing a modest but significant inotropic effect (1 μM).
Rabbit myocytes were isolated to determine the effect of PDE1 inhibition on cardiomyocyte contraction and whole cell Ca2+ transients, and to compare the results to those with a PDE3 inhibitor, cilostamide (Cil, 1 μM).

Data set [4] relates to New Zealand White rabbits. As to the kind of experiment: Pressure-volume hemodynamics in anesthetized rabbits. The data set is classed as in vivo, rabbit. The conditions noted are these: for hemodynamic effects: atrially paced. An excerpt: Cyclic AMP is generated largely by transmembrane adenylyl cyclases activated via stimulatory G protein (Gs), with β-adrenergic, adenosine (primarily […]), glucagon, prostanoids, histamine, and serotonin all coupling to Gs in cardiomyocytes. The present studies focus on beta-adrenergic and adenosine receptors, and for the latter, concentrated on the A2B receptor, which has been reported to directly stimulate cAMP-dependent contractility. […] Relaxation changes are also modest with LV preload (end-diastolic and volume) unaltered; however, the combined vasodilator-inotropic response doubled ventricular/arterial coupling ratio, Ees/Ea.
New Zealand White rabbits (male, 2-3 kg) are sedated with 35 mg/kg ketamine and 5 mg/kg xylazine, intubated and ventilated (Model 683, Harvard Apparatus, Holliston, MA), with anesthesia maintained with isoflurane inhalation (1-2%). A pressure-volume catheter (SPR-894, Millar, Inc., Houston, TX) is inserted via the common carotid artery and advanced to the LV apex, and a 2-Fr pacing catheter is positioned in the right atrium via the right jugular vein to provide atrial pacing. […] The parallel conductance is determined by the hypertonic saline injection method. Rabbits are infused with 6% hetastarch in saline during the procedure to stabilize arterial pressure.

Another data set concerns plasma cAMP and cGMP. Kind of data set: Plasma cAMP and cGMP by ELISA in dogs. The data set is classed as in vivo, dog. The conditions noted are these: for plasma cGMP: normal and HF models, all conditions. How it is done:
Blood plasma is obtained from these animals, and cAMP and cGMP are assayed by ELISA.
For orientation: ELISA stands for enzyme-linked immunosorbent assay.

Data set [5] in a line: Plasma Compound 1 levels in dogs (LC/MS-MS). As to conditions: normal dogs, 0.1 mg/kg i.v. The class given is in vivo, dog. The protocol:
as §1, §2
Intravenous blood is placed in K2EDTA tubes, centrifuged at 2,000 g for 15 min, plasma decanted, and stored frozen. Compound 1 levels are assessed by a rapid, sensitive liquid chromatography-tandem mass spectrometric (LC/MS-MS) method.
The mobile phase consists of a gradient of 60-100% methanol over 4.5 minutes in 5 mM ammonium bicarbonate with 0.2% NH3H2O, pumped at a flow rate of 0.8 mL/min. Analysis time is 4.5 min and both the analyte and internal standard eluted around 2.0 min. Multiple reactions monitoring (MRM) mode is used to detect Compound 1. MS is operated in the positive ion detection mode. […] Calibration curves are linear from 0.02-500 ng/mL in dog plasma sample matrices. The lower limit of quantification (LLOQ) for plasma was 0.02 ng/mL.

For data set [6], the system named is patients with stable chronic systolic HF. As to the kind of experiment: Phase Ib/IIa single ascending dose study in human heart failure. The class given is in vivo. The protocol: as §3, §4
Supine and orthostatic blood pressure and heart rate were recorded pre-dose, as well as 60 and 40 minutes post-dose. Continuous electrocardiographic monitoring starting up to 30-60 minutes prior to the pre-dose echocardiogram through to 5-6 hours post-dose including measurement of ectopic arrhythmias pre- and post-dose.

Where [7] appears, read: Compound 1 added after FSK 1 μM.
The mark [8] stands for this setting: continuous ECG monitoring to 5-6 hours post-dose.

Regarding `CN1C(=O)c2c(nn(Cc3ccc(-c4cccc(F)n4)cc3)c2Nc2ccccc2)N2C1=N[C@@H]1CCC[C@@H]12` [Compound 1, (6aR,9aS)-2-(4-(6-fluoropyridin-2-yl)benzyl)-5-methyl-3-(phenyl-amino)-5,6a,7,8,9,9a-hexahydrocyclopenta-[4,5]imidazo[1,2-a]pyrazolo[4,3-e]pyrimidin-4-(2H)-one monophosphate], the hemodynamic responses entry in data set [1] (0.1 mg/kg i.v.) was “positive chronotropic, inotropic, lusitropic, and vasodilator responses”. Besides, the “inotropy, lusitropy and vasodilation” value in data set [1] (i.v., heart failure dogs) was “remained significantly improved”. For the same compound, the “cAMP change as share of the maximal change with IBMX added to Fsk” value in the data set with myocyte cAMP (Compound 1 added to Fsk) is reported as “about half”. Besides, the cAMP result in the data set with myocyte cAMP is on record as “substantially increased by adding Compound 1”. The area under curve result in data set [2] is “increasing with dose escalation”. The “percent sarcomere shortening, peak-Ca2+ transients and decay kinetics” value in data set [3] (Compound 1 1 μM alone) is recorded as “not observed”. Besides, the “rise in sarcomere shortening versus time-control” value in data set [3] (Compound 1+FSK vs FSK for identical duration) was “exceeds that with FSK alone”. In addition, in data set [3] (setting [7]), the peak calcium transient result is “remains unaltered”; the “shortening and relaxation/calcium decay rates” value is “significantly increases shortening and relaxation/calcium decay rates”. The “effect on contraction and calcium transients” value in data set [3] (Compound 1 alone) is “no effect”. Also, in data set [3] (added to Fsk 1 μM), the “Ca2+ transient decay” value was “enhanced the Ca2+ decay rate similarly to Cil”, the “peak Ca2+ transient” value is “no corresponding increase in peak Ca2+ transient” and the sarcomere shortening entry is recorded as “rose as with Cil”. Also, in data set [3] (added to Iso), the “peak-Ca2+” value is listed as “no longer significantly different from pre-Iso baseline” and the sarcomere shortening entry is listed as “did not change further”. In data set [4] (0.1 mg/kg i.v. bolus, alone), the LV preload result is given as “unaltered”, the cardiac output result is listed as “increases cardiac output”, the heart rate entry was “modestly elevated heart rate” and the relaxation changes entry was “modest”. Besides, in data set [4] (0.1 mg/kg i.v. bolus, alone), the systemic resistance entry is “lowered systemic resistance” and the systolic pressure entry is on record as “no change in systolic pressure”. In data set [4] (after esmolol), the “contractile and vasodilation effects” value is reported as “remain intact”; the heart rate result is reported as “no longer increases HR”. Further, in data set [4] (atrially paced at ~20% above sinus node rate), the hemodynamic responses result is “nearly identical responses”. Besides, the hemodynamic effects result in data set [4] (with MRS-1754) was “fully blocked by MRS-1754”. Besides, in data set [4] (with esmolol), the hemodynamic effects entry is on record as “unaltered by esmolol”. Moreover, in data set [4] (with A2BR blocker MRS-1754), the “cardiovascular responses to Compound 1 (heart rate, contractility, vasodilation)” value was “eliminated all of the cardiovascular responses”. In the data set on plasma cAMP and cGMP (HF dogs, combination of dobutamine and Compound 1), the “plasma cAMP” value was “significantly higher”. Further, the “plasma cGMP” value in the data set on plasma cAMP and cGMP is listed as “remains unchanged”. In addition, the “time of peak plasma concentration” value in data set [5] is reported as “within minutes”. Also, in data set [6] (30 mg), the systemic vascular resistance result was “greatest decrease”. The “effective arterial elastance (Ea)” value in data set [6] (30 mg and 90 mg) was “decreased”. For the same compound, in data set [6] (all cohorts (10, 30, 90 mg single oral dose)), the systemic vascular resistance entry is “significantly decrease systemic vascular resistance”. Also, the “mean arterial blood pressure” value in data set [6] (all dose amounts, versus placebo) is “decrease mean arterial blood pressure versus placebo”. Also, in data set [6] (setting [8]), the “atrial fibrillation or atrial flutter” value is recorded as “none of the patients developed atrial fibrillation or atrial flutter”, the “sustained supraventricular or ventricular tachycardia” value is reported as “no patient developed sustained supraventricular or ventricular tachycardia” and the ventricular proarrhythmia entry is “no evidence of ventricular proarrhythmia”. The safety and tolerability entry in data set [6] (patients with systolic heart failure (HFrEF)) is “safe and well tolerated”. Further, in data set [6] (throughout the testing period), the “blood pressures and heart rates” value is “remained stable”.

As for `CC(C)Cn1c(=O)n(C)c(=O)c2[nH]cnc21` [IBMX, reference compound], in data set [3] (IBMX 100 μM), the peak calcium transients entry is “did not alter peak calcium transients”; the “shortening and contraction/calcium decay rates” value was “increased shortening and contraction/calcium decay rates”.

As for `CCCn1c(=O)c2[nH]c(-c3ccc(OCC(=O)Nc4ccc(C#N)cc4)cc3)nc2n(CCC)c1=O` [MRS-1754, reference compound], the “impact of inhibitor pre-treatment alone on cardiovascular hemodynamics” value in data set [4] is “Neither inhibitor pre-treatment alone has a significant impact”.

On to `CN(C(=O)CCCOc1ccc2[nH]c(=O)ccc2c1)C1CCCCC1` [cilostamide, reference compound], for which, in the data set on myocyte cAMP, the cAMP result is recorded as “unaltered by addition of Cil” and the “whole cell cAMP” value is given as “did not measurably increase whole cell cAMP”. In data set [3] (Cil 1 μM alone), the “percent sarcomere shortening, peak-Ca2+ transients and decay kinetics” value was “rose and their decay kinetics accelerated”. For the same compound, in data set [3] (added to Fsk 1 μM), the “Ca2+ transient decay” value is listed as “faster decay of the Ca2+ transient”, the “peak Ca2+ transient” value is given as “increase” and the sarcomere shortening result is reported as “increase in sarcomere shortening”. In addition, in data set [3] (added to Iso), the “peak-Ca2+” value is listed as “remained elevated over baseline” and the sarcomere shortening entry is “further increased sarcomere shortening”.

As for `CC(CCc1ccc(O)cc1)NCCc1ccc(O)c(O)c1` (stereo not drawn) [dobutamine, reference compound], the “PV loop area (stroke work) and contractility” value in data set [1] (dobutamine 10 μg/kg/min alone) is on record as “increased PV loop area”. The “plasma cGMP” value with plasma cAMP and cGMP is given as “remains unchanged”.

For the compound `COC(=O)CCc1ccc(OCC(O)CNC(C)C)cc1` (stereo not drawn) [esmolol, esmolol HCl, reference compound], the “cardiac responses to 10 μg/kg/min dobutamine” value in data set [4] (esmolol dose as used) is listed as “effectively blocked cardiac responses”. For the same compound, the “impact of inhibitor pre-treatment alone on cardiovascular hemodynamics” value in data set [4] is given as “Neither inhibitor pre-treatment alone has a significant impact”.

Take `CC(C)NCC(O)c1ccc(O)c(O)c1` (stereo not drawn) [isoproterenol, reference compound]: the “whole cell cAMP” value with myocyte cAMP is given as “did not measurably increase whole cell cAMP”. Also, the “sarcomere shortening and peak Ca2+” value in data set [3] (isoproterenol 50 nM) was “increases both sarcomere shortening and peak Ca^2+”. The “sarcomere shortening, peak-Ca2+ and relaxation times” value in data set [3] (non-saturating dose of isoproterenol) was “increased sarcomere shortening and peak-Ca^2+, and quickened relaxation times”.
